Data from publication PMC7159426 (American Journal of Respiratory and Critical Care Medicine, 2020).

Assays:
TMEM16A (anoctamin-1) = target: T1, TMEM16A (anoctamin-1) (Homo sapiens, UniProt Q5XXA6); test: whole-cell patch clamp; assay type: cell-based
T1 sequence (Q5XXA6 1-986): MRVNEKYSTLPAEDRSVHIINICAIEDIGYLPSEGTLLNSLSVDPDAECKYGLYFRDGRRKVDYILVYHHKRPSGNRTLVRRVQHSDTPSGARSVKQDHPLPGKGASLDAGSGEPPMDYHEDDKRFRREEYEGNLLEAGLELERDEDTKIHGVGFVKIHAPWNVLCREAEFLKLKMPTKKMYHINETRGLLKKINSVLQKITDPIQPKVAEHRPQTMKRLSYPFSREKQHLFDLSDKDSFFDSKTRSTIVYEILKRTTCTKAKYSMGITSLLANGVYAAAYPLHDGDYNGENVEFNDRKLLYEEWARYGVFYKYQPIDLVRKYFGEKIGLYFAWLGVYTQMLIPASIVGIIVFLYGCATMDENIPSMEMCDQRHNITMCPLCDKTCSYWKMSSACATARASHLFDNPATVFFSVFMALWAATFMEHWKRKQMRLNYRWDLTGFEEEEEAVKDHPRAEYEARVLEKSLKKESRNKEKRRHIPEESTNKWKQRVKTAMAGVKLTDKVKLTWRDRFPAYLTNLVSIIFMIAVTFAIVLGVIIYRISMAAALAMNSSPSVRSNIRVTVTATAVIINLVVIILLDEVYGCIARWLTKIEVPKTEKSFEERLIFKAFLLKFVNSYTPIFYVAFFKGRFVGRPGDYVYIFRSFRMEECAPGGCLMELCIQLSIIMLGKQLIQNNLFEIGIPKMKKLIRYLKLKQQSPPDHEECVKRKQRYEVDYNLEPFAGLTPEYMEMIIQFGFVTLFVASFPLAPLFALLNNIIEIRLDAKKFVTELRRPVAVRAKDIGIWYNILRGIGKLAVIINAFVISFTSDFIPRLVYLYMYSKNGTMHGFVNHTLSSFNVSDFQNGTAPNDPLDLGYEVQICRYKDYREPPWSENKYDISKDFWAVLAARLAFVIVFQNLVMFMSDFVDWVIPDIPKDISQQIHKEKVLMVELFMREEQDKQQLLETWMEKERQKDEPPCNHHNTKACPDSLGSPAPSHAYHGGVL

sheep TMEM16A = target: T2, sheep TMEM16A (Ovis aries, UniProt A0ACI6NM12); test: whole-cell patch clamp; assay type: cell-based
T2 sequence (A0ACI6NM12 1-1040): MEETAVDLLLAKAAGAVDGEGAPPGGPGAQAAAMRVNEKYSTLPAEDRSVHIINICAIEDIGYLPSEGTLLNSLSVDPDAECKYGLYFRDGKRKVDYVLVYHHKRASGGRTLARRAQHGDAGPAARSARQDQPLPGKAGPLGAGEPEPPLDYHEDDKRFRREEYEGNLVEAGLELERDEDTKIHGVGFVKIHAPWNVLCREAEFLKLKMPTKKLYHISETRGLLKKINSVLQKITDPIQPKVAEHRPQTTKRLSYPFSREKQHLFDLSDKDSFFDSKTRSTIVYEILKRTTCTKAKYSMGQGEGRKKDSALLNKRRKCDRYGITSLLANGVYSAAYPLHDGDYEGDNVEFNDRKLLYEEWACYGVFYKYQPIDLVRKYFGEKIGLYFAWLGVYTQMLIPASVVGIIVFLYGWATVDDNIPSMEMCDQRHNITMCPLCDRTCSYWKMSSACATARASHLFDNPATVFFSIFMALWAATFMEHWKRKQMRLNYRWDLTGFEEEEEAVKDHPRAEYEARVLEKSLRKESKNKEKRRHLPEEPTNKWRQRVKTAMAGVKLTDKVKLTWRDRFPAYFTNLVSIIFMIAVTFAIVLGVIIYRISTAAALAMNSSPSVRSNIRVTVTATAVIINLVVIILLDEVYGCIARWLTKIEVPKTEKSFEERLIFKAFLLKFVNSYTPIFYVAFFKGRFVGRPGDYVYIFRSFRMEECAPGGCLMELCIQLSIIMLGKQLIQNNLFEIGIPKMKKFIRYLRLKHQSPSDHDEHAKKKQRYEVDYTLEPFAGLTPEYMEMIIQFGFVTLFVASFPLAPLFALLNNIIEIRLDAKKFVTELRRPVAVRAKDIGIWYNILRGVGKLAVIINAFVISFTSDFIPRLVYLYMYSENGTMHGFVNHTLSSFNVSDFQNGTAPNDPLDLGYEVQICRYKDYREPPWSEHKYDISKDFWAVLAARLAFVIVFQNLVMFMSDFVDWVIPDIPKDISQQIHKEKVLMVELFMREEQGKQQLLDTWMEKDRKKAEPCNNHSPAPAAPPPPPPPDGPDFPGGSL

## ETX001
TMEM16A (anoctamin-1)
  EC50: 116 ± 16 nM
Sheep TMEM16A
  EC50: 127 ± 21 nM
